From patent publication USRE38970E1, “Indolyl or indolinyl derivatives and medicinal use thereof as ACAT or lipid peroxidation inhibitors” (Kyoto Pharmaceutical Industries, Ltd., priority 1995, dated 2006)
Values after ≈ are worked out from the molar mass of the structure shown.

How the values were obtained:
ACAT = ACAT inhibitory activity (cholesteryl oleate production by small intestine mucosal microsomes); format: biochemical, Japanese white rabbits; conditions: rabbit small intestine mucosal microsomes, [1-14C] oleoyl CoA, 37° C. 7 minutes, vs control; test concentration not given
serum total cholesterol = assay: Serum total cholesterol reducing effect in rats on high cholesterol feed; format: in vivo; conditions: male Wister rats, vs control
Protocol: Mile Wister rats weighing 180-200 g were bred under free access to a high cholesterol feed [added with cholesterol (1%), cholic acid (0.5%) and coconut oil (10%), Clea Japan, Inc.] for 3 days, during which period a test compound (3 mg/kg and 10 mg/kg) suspended in 5% gum arabic solution was forcibly administered once a day orally for 3 days. Only 5% gum arabic solution was administered to control animals. After final administration, the test animals were fasted and blood was taken 5 hours later. The serum total cholesterol level was determined using a commercially available assay lit (cholesterol-CII-Test Wako, Wako Pure Chemical Industries, Ltd.).

plasma lipoperoxidation [1] = assay: In vitro plasma lipoperoxidation inhibitory activity (malondialdehyde production); format: biochemical, Wister rats; conditions: rat heparinized plasma, test compound final concentration 10^-5M, copper sulfate, malondialdehyde production vs control
Protocol: Under ether anesthesia, blood was taken from male Wister rats weighing 160-190 g that had been fasted for 16 hours, and heparinized plasma was separated by conventional method. DMSO (10 μl) or a test compound (final concentration 10^−5M) dissolved in DMSO (test compound solution 10 μl) was added to plasma (1.0 ml), and the mixture was incubated at 37° C. for 5 minutes.

plasma lipoperoxidation [2] = assay: Ex vivo plasma lipoperoxidation inhibitory activity after oral administration; format: in vivo; conditions: male Wister rats, plasma taken 1 hour after administration
Protocol: Under ether anesthesia, blood was taken from male Wister rats weighing 160-190 g that had been fasted for 16 hours, and heparinized plasma was separated by conventional method.
Only 5% gum arabic solution was administered to control animals. At 1 hour after administration, blood was taken under ether anesthesia and heparinized plasma was separated by conventional method. The plasma (1.0 ml) was processed in the same manner as in Experimental Example 3 and the amount of produced malondialdehyde was determined.

[3] = Solubility in buffer pH 6.8; conditions: for solubility at 1 h: buffer pH 6.8, 25 °C, pH 6.8, aqueous buffer, thermodynamic from solid; for Solubility: buffer pH 6.8, shaken 1 hr at 25° C., HPLC
Protocol: A pulverized test compound (10 mg) was added to buffer (1 ml, pH 6.8), and the mixture was shaken for 1 br at 25° C.

[4] = Oral administration, plasma concentration in SD rats; conditions: 30 mg/kg orally, fasted male SD rats, sampled 0.5-6 hours
Protocol: (§1) At 0.5, 1, 2, 4 and 6 hours after administration, blood was taken and heparinized plasma was separated by conventional method.

[5] = Oral administration, plasma concentration in Wister rats; conditions: 30 mg/kg orally, fasted male Wister rats, sampled 0.5-6 hours
Protocol: as §1

[6] = 3 mg/kg/day orally once a day for 3 days
[7] = 10 mg/kg/day orally once a day for 3 days

Structure (SMILES) | ACAT inhibition (%) (ACAT) | Reduction (%) of serum total cholesterol (serum total cholesterol; [6]) [%] | Reduction (%) of serum total cholesterol (serum total cholesterol; [7]) [%] | Inhibition (%) of plasma lipoperoxidation (plasma lipoperoxidation [1]) [%] | further results
CCCCCCCCN1CCc2c(C)c(CO)c(C)c(NC(=O)C(C)(C)C)c21 [Example 1, N-(1-octyl-5-hydroxymethyl-4,6-dimethylindolin-7-yl)-2,2-dimethylpropanamide] | 99.2 | 52.8 | 57.1 | 51.7 | –
CCCCCCCCN1CCc2c(C)c(CC(=O)OCC)c(C)c(NC(=O)C(C)(C)C)c21 [Example 3, N-(1-octyl-5-ethoxycarbonylmethyl-4,6-dimethylindolin-7-yl)-2,2-dimethylpropanamide] | 92.5 | 54.2 | 61.2 | 49.2 | –
CCCCCCCCN1CCc2c(C)c(CC(=O)O)c(C)c(NC(=O)C(C)(C)C)c21 [Example 4, N-(1-octyl-5-carboxymethyl-4,6-dimethylindolin-7-yl)-2,2-dimethylpropanamide] | – | 58.8 | 57.5 | 51.2 | Inhibition (%) of plasma lipoperoxidation (plasma lipoperoxidation [2]; 10 mg/kg orally): 39.0%; solubility at 1 h [3]: 6900 µg/mL (≈ 16.6 mM); Highest concentration in plasma [4]: 13.6 µg/mL; Highest concentration in plasma [5]: 1.4 µg/mL
CCCCCCCCN1CC(CCC(=O)O)c2c(C)cc(C)c(NC(=O)C(C)(C)C)c21 (stereo not shown) [Example 11, N-[(1-octyl-3-(2-carboxyethyl)-4,6-dimethylindolin-7-yl)]-2,2-dimethylpropanamide] | – | – | – | 44.5 | –
CCCCCCN1CCc2c(C)c(CC(=O)O)c(C)c(NC(=O)C(C)(C)C)c21 [Example 18] | – | – | – | – | Solubility [3]: 7300 µg/mL (≈ 18.8 mM)
CCCCCCCCCN1CCc2c(C)c(CC(=O)O)c(C)c(NC(=O)C(C)(C)C)c21 [Example 36] | – | – | – | – | Solubility [3]: 4200 µg/mL (≈ 9.75 mM); Highest concentration in plasma [4]: 12.2 µg/mL; Highest concentration in plasma [5]: 2.2 µg/mL
CCCCCCCCN1CCc2cc(CC(=O)O)c(C)c(NC(=O)C(C)(C)C)c21 [Example 71] | – | 26.5 | 52.3 | 48.1 | Solubility [3]: 100 µg/mL (≈ 0.248 mM)
CCCCCCCCN1CCc2cc(CO)c(C)c(NC(=O)C(C)(C)C)c21 [Example 76] | 94.7 | – | – | 51.7 | –
CCCCCCCCN1CCc2cc(CN(C)C)c(C)c(NC(=O)C(C)(C)C)c21 [Example 81] | – | 31.7 | 53.8 | 47.1 | –
CCCCCCCCN1CCc2cc(CC(=O)O)c(C)c(NC(=O)C(C)(C)C)c21 [Example 116] | 92.0 | 26.5 | 50.9 | 45.5 | –
CCCCCCCCN1CCc2c(C)c(CCC(=O)O)c(C)c(NC(=O)C(C)(C)C)c21 [Example 120, N-(1-octyl-5-carboxyethyl-4,6-dimethylindolin-7-yl)-2,2-dimethylpropanamide] | 92.3 | 45.8 | 44.6 | – | –
CCCCSCCCCCCN1CCc2c(C)c(CC(=O)O)c(C)c(NC(=O)C(C)(C)C)c21 [Example 121] | 92.5 | 87.8 | 48.1 | 41.6 | –
CCCCSCCCN1CCc2c(C)c(CC(=O)O)c(C)c(NC(=O)C(C)(C)C)c21 [Example 122] | 92.0 | 88.2 | 50.0 | – | –
CCCCCCCCN1CCCc2c(C)c(CC(=O)O)c(C)c(NC(=O)C(C)(C)C)c21 [Example 125, N-(1-octyl-6-carboxymethyl-5,7-dimethyl-1,2,3,4-tetrahydroquinolin-8-yl)-2,2-dimethylpropanamide] | 93.0 | 30.2 | 47.9 | 48.0 | –
CCCCCCCCN1CCc2cc(C(=O)O)c(C)c(NC(=O)C(C)(C)C)c21 [Example 155, N-(1-octyl-5carboxy-6-methylindolin-7-yl)-2,2-dimethylpropanamide] | – | 55.2 | 58.5 | 47.7 | –
CCCCCCCCN1CCc2c(C)c(C(=O)O)c(C)c(NC(=O)C(C)(C)C)c21 [Example 159] | – | 53.8 | 57.5 | 48.3 | –
CC(C)(Sc1cc(C(C)(C)C)c(O)c(C(C)(C)C)c1)Sc1cc(C(C)(C)C)c(O)c(C(C)(C)C)c1 [Probucol, 4,4-isopropylidenedithiobis(2,6-di-t-butylphenol), reference compound] | – | – | – | – | Inhibition (%) of plasma lipoperoxidation (plasma lipoperoxidation [2]; 100 mg/kg orally): 15.4%
Cc1cc(C)c(NC(=O)N(Cc2ccc3c(c2)Cc2ccccc2-3)C2CCCCCC2)c(C)c1 [YM-750, 1-cycloheptyl-1-[(2-fluorenyl)methyl]-3-(2,4,6-trimethyl-phenyl) urea, reference compound] | 92.0 | 37.7 | 46.4 | – | solubility at 1 h [3]: < 10 µg/mL
